Assays:
[1] = free ICG; cited from earlier work
[2] = tested on: 4T1 mCherry mammary tumors; experiment: Live IVIS imaging of tumor accumulation and tumor-to-background ratio; type: in vivo, Balb/c mice; details: 50 nmole intravenous, after background cleared over time, day 2
[3] = tested on: 4T1 mouse breast cancer cells; experiment: Cellular uptake, confocal microscopy; type: cell-based; details: 4T1 cells, 10 µM ICG labeled PAs, 2 hours, 37°C, confocal microscope
[4] = tested on: 4T1 mCherry mammary tumors; experiment: Biodistribution by ICG fluorescence of tissue homogenates; type: in vivo, Balb/c mice; details: 50 nmole intravenous, tissue homogenates 2 days after injection

Row | Compound | blood circulation half-life [1] | tumor-to-background ratio (TBR) [2] | cellular uptake / membrane retention [3] | tumor to liver ratio [4]
1 | CC1(C)C(/C=C/C=C/C=C/C=C2\N(CCCCS(=O)(=O)O)c3ccc4ccccc4c3C2(C)C)=[N+](CCCCS(=O)(=O)[O-])c2ccc3ccccc3c21 [ICG, indocyanine green] | < 5 min |  |  | 
2 | GGGHGDCDD [C12] |  | 6 |  | 
3 | GGGHGDCDD [C16] |  | > 10 | significant retention in the membrane | 
4 | GGGHGDCDD [C18] |  | > 10 | significant retention in the membrane | ~3.3

— paper doi:10.1101/2025.11.18.689169v1 (bioRxiv, 2025)
